From patent US20230085307A1, “PYRIDAZINONE COMPOUND AND HERBICIDE” (NISSAN CHEMICAL CORPORATION, priority 2019, published 2023)

Tests used:
late watergrass = assay: Test Example 1: herbicidal activity, application before weed generation under submerged conditions (Table 16, symbol A); type: in vivo, late watergrass (Echinochloa oryzicola); conditions: amount of applied herbicide 320 g/ha
Summary of the method: (§1)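 Submerged Wagner pots (alluvial soil, 4 cm water) sown with weed seeds and planted with 2.5-leaf rice seedlings; emulsifiable concentrate diluted in water applied to water surface on sowing day. Held in greenhouse at 25-30 °C; injury scored 0-5 by herbicidal rate after three weeks.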

Japanese bulrush = assay: Test Example 1: herbicidal activity, application before weed generation under submerged conditions (Table 16, symbol B); type: in vivo, Japanese bulrush (Schoenoplectus juncoides); conditions: amount of applied herbicide 320 g/ha
Summary of the method: as §1

oval-leafed pondweed [1] = assay: Test Example 1: herbicidal activity, application before weed generation under submerged conditions (Table 16, symbol C); type: in vivo, oval-leafed pondweed (Monochoria vaginalis); conditions: amount of applied herbicide 320 g/ha
Summary of the method: as §1

oval-leafed pondweed [2] = assay: Test Example 2: herbicidal activity, application during weed generation under submerged conditions (Table 17, symbol C); type: in vivo, oval-leafed pondweed (Monochoria vaginalis); conditions: AAH 320 g/ha; application during weed generation, submerged conditions
Summary of the method: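 3-wk visual-criteria score after one water-surface dose. Emulsion formulation, water-diluted to set rate; applied at 1–2 leaf stage; alluvial soil, 4 cm standing water; seeds co-sown; greenhouse 25–30° C.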

Chinese sprangletop = assay: Test Example 3: herbicidal effect by foliage application, Wagner pot (Table 18, symbol D); type: in vivo, chinese sprangletop (Leptochloa chinensis); conditions: for herbicidal effect on D: Chinese sprangletop: amount of applied herbicide 320 g/ha; for herbicidal effect on Chinese sprangletop (D): 320 g/ha
Summary of the method: (§2)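 Plants were sown in alluvial soil held under 0.1–0.5 cm standing water and grown 14 days in a greenhouse at 25–30 °C. An emulsifiable formulation, water-diluted to the set dose, was then sprayed onto the foliage, and effects were scored three weeks later using previously defined criteria.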

rice flat sedge = assay: Test Example 3: herbicidal effect by foliage application, Wagner pot (Table 18, symbol E); type: in vivo, rice flat sedge (Cyperus iria); conditions: for herbicidal effect on E: rice flat sedge: amount of applied herbicide 320 g/ha; for herbicidal effect on rice flat sedge (E): 320 g/ha
Summary of the method: as §2

southern crabgrass [3] = assay: Test Example 4: herbicidal effect by soil treatment (Table 19, symbol F); type: in vivo, southern crabgrass (Digitaria ciliaris); conditions: amount of applied herbicide 320 g/ha
Summary of the method: (§3)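 In this soil treatment, the formulated compound reached the seeds only through the soil: seeds were buried about 1.5 cm deep in sterilized diluvial soil, then the diluted emulsion was sprayed over the surface. After three weeks at 25° C. to 30° C. in a greenhouse, effects were graded on criteria from an earlier test.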

windgrass [4] = assay: Test Example 4: herbicidal effect by soil treatment (Table 19, symbol L); type: in vivo, windgrass (Apera spica-venti); conditions: amount of applied herbicide 320 g/ha
Summary of the method: as §3

redroot pigweed = assay: Test Example 4: herbicidal effect by soil treatment (Table 19, symbol N); type: in vivo, redroot pigweed (Amaranthus retroflexus); conditions: amount of applied herbicide 320 g/ha
Summary of the method: as §3

persian speedwell = assay: Test Example 4: herbicidal effect by soil treatment (Table 19, symbol R); type: in vivo, Persian speedwell (Veronica persica); conditions: amount of applied herbicide 320 g/ha
Summary of the method: as §3

southern crabgrass [5] = assay: Test Example 5: herbicidal effect by foliage application, plastic box (Table 20, symbol F); type: in vivo, southern crabgrass (Digitaria ciliaris); conditions: foliage application, 320 g/ha, three weeks after application
Summary of the method: (§4)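 Plants were sown into sterilized diluvial soil under about 1.5 cm cover and kept in a greenhouse at 25° C. to 30° C. Fourteen days on, foliage received an even spray of the diluted emulsion. Herbicidal or crop effect was judged three weeks afterwards.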

green foxtail = assay: Test Example 5: herbicidal effect by foliage application, plastic box (Table 20, symbol G); type: in vivo, green foxtail (Setaria viridis); conditions: foliage application, 320 g/ha, three weeks after application
Summary of the method: as §4

barnyard grass = assay: Test Example 5: herbicidal effect by foliage application, plastic box (Table 20, symbol H); type: in vivo, barnyard grass (Echinochloa crus-galli); conditions: foliage application, 320 g/ha, three weeks after application
Summary of the method: as §4

wild oat = assay: Test Example 5: herbicidal effect by foliage application, plastic box (Table 20, symbol I); type: in vivo, wild oat (Avena fatua); conditions: foliage application, 320 g/ha, three weeks after application
Summary of the method: as §4

windgrass [6] = assay: Test Example 5: herbicidal effect by foliage application, plastic box (Table 20, symbol L); type: in vivo, windgrass (Apera spica-venti); conditions: foliage application, 320 g/ha, three weeks after application
Summary of the method: as §4

lambsquarters = assay: Test Example 5: herbicidal effect by foliage application, plastic box (Table 20, symbol O); type: in vivo, lambsquarters (Chenopodium album); conditions: foliage application, 320 g/ha, three weeks after application
Summary of the method: as §4

## COc1ccccc1-c1sc2cc(F)ccc2c1-c1c(OC(=O)c2ccco2)c(C)nn(C)c1=O [3-023]
Late watergrass
  Herbicidal effect, A: late watergrass: 3 (Herbicidal rate of 40% or more and less than 70%)
Japanese bulrush
  Herbicidal effect, B: Japanese bulrush: 3 (Herbicidal rate of 40% or more and less than 70%)
oval-leafed pondweed [1]
  Herbicidal effect, C: oval-leafed pondweed: 4 (Herbicidal rate of 70% or more and less than 90%)
oval-leafed pondweed [2]
  herbicidal effect rating, C: oval-leafed pondweed: 4 (Herbicidal rate of 70% or more and less than 90%)
Chinese sprangletop
  herbicidal effect on D: Chinese sprangletop: 3 (Herbicidal rate of 40% or more and less than 70%)
Rice flat sedge
  herbicidal effect on E: rice flat sedge: 5 (Herbicidal rate of 90% or more (almost completely withered))
Southern crabgrass [3]
  herbicidal effect, F: southern crabgrass: 3 (Herbicidal rate of 40% or more and less than 70%)
Windgrass [4]
  herbicidal effect, L: windgrass: 3 (Herbicidal rate of 40% or more and less than 70%)
Redroot pigweed
  herbicidal effect, N: redroot pigweed: 5 (Herbicidal rate of 90% or more (almost completely withered))
Persian speedwell
  herbicidal effect, R: persian speedwell: 4 (Herbicidal rate of 70% or more and less than 90%)
Southern crabgrass [5]
  F: southern crabgrass, herbicidal effect grade: 3 (Herbicidal rate of 40% or more and less than 70%)
Green foxtail
  G: green foxtail, herbicidal effect grade: 5 (Herbicidal rate of 90% or more (almost completely withered))
Barnyard grass
  H: barnyard grass, herbicidal effect grade: 5 (Herbicidal rate of 90% or more (almost completely withered))
Wild oat
  I: wild oat, herbicidal effect grade: 4 (Herbicidal rate of 70% or more and less than 90%)
Windgrass [6]
  L: windgrass, herbicidal effect grade: 5 (Herbicidal rate of 90% or more (almost completely withered))
lambsquarters
  O: lambsquarters, herbicidal effect grade: 3 (Herbicidal rate of 40% or more and less than 70%)

## COc1ccccc1-c1sc2cc(F)ccc2c1-c1c(OS(=O)(=O)c2ccc(C)cc2)c(C)nn(C)c1=O [3-027]
Late watergrass
  Herbicidal effect, A: late watergrass: 2 (Herbicidal rate of 20% or more and less than 40%)
Japanese bulrush
  Herbicidal effect, B: Japanese bulrush: 3 (Herbicidal rate of 40% or more and less than 70%)
oval-leafed pondweed [1]
  Herbicidal effect, C: oval-leafed pondweed: 5 (Herbicidal rate of 90% or more (almost completely withered))
oval-leafed pondweed [2]
  herbicidal effect rating, C: oval-leafed pondweed: 3 (Herbicidal rate of 40% or more and less than 70%)
Chinese sprangletop
  herbicidal effect on D: Chinese sprangletop: 3 (Herbicidal rate of 40% or more and less than 70%)
Rice flat sedge
  herbicidal effect on E: rice flat sedge: 5 (Herbicidal rate of 90% or more (almost completely withered))
Southern crabgrass [3]
  F: southern crabgrass, herbicidal effect grade: 0 (Herbicidal rate of 5% or less (almost no effect))
Windgrass [4]
  L: windgrass, herbicidal effect grade: 0 (Herbicidal rate of 5% or less (almost no effect))
Redroot pigweed
  N: redroot pigweed, herbicidal effect grade: 0 (Herbicidal rate of 5% or less (almost no effect))
Persian speedwell
  R: persian speedwell, herbicidal effect grade: 0 (Herbicidal rate of 5% or less (almost no effect))
Southern crabgrass [5]
  F: southern crabgrass, herbicidal effect grade: 3 (Herbicidal rate of 40% or more and less than 70%)
Green foxtail
  G: green foxtail, herbicidal effect grade: 5 (Herbicidal rate of 90% or more (almost completely withered))
Barnyard grass
  H: barnyard grass, herbicidal effect grade: 5 (Herbicidal rate of 90% or more (almost completely withered))
Wild oat
  I: wild oat, herbicidal effect grade: 3 (Herbicidal rate of 40% or more and less than 70%)
Windgrass [6]
  L: windgrass, herbicidal effect grade: 5 (Herbicidal rate of 90% or more (almost completely withered))
lambsquarters
  O: lambsquarters, herbicidal effect grade: 3 (Herbicidal rate of 40% or more and less than 70%)

## COc1ccccc1-c1sc2cc(F)ccc2c1-c1c(OS(=O)(=O)N(C)C)c(C)nn(C)c1=O [3-028]
Late watergrass
  Herbicidal effect, A: late watergrass: 2 (Herbicidal rate of 20% or more and less than 40%)
Japanese bulrush
  Herbicidal effect, B: Japanese bulrush: 0 (Herbicidal rate of 5% or less (almost no effect))
oval-leafed pondweed [1]
  Herbicidal effect, C: oval-leafed pondweed: 0 (Herbicidal rate of 5% or less (almost no effect))
oval-leafed pondweed [2]
  herbicidal effect rating, C: oval-leafed pondweed: 0 (Herbicidal rate of 5% or less (almost no effect))
Chinese sprangletop
  herbicidal effect on D: Chinese sprangletop: 3 (Herbicidal rate of 40% or more and less than 70%)
Rice flat sedge
  herbicidal effect on E: rice flat sedge: 5 (Herbicidal rate of 90% or more (almost completely withered))
Southern crabgrass [3]
  F: southern crabgrass, herbicidal effect grade: 0 (Herbicidal rate of 5% or less (almost no effect))
Windgrass [4]
  L: windgrass, herbicidal effect grade: 3 (Herbicidal rate of 40% or more and less than 70%)
Redroot pigweed
  N: redroot pigweed, herbicidal effect grade: 0 (Herbicidal rate of 5% or less (almost no effect))
Persian speedwell
  R: persian speedwell, herbicidal effect grade: 0 (Herbicidal rate of 5% or less (almost no effect))
Southern crabgrass [5]
  F: southern crabgrass, herbicidal effect grade: 3 (Herbicidal rate of 40% or more and less than 70%)
Green foxtail
  G: green foxtail, herbicidal effect grade: 4 (Herbicidal rate of 70% or more and less than 90%)
Barnyard grass
  H: barnyard grass, herbicidal effect grade: 2 (Herbicidal rate of 20% or more and less than 40%)
Wild oat
  I: wild oat, herbicidal effect grade: 0 (Herbicidal rate of 5% or less (almost no effect))
Windgrass [6]
  L: windgrass, herbicidal effect grade: 5 (Herbicidal rate of 90% or more (almost completely withered))
lambsquarters
  O: lambsquarters, herbicidal effect grade: 2 (Herbicidal rate of 20% or more and less than 40%)

## CCCC(=O)Oc1c(C)nn(C)c(=O)c1-c1c(-c2ccc(Cl)cc2)sc2cc(Cl)ccc12 [3-034]
Late watergrass
  Herbicidal effect, A: late watergrass: 3 (Herbicidal rate of 40% or more and less than 70%)
Japanese bulrush
  Herbicidal effect, B: Japanese bulrush: 3 (Herbicidal rate of 40% or more and less than 70%)
oval-leafed pondweed [1]
  Herbicidal effect, C: oval-leafed pondweed: 3 (Herbicidal rate of 40% or more and less than 70%)
oval-leafed pondweed [2]
  herbicidal effect rating, C: oval-leafed pondweed: 0 (Herbicidal rate of 5% or less (almost no effect))
Chinese sprangletop
  herbicidal effect on Chinese sprangletop (D): 4 (Herbicidal rate of 70% or more and less than 90%)
Rice flat sedge
  herbicidal effect on rice flat sedge (E): 5 (Herbicidal rate of 90% or more (almost completely withered))
Southern crabgrass [3]
  F: southern crabgrass, herbicidal effect grade: 0 (Herbicidal rate of 5% or less (almost no effect))
Windgrass [4]
  L: windgrass, herbicidal effect grade: 0 (Herbicidal rate of 5% or less (almost no effect))
Redroot pigweed
  N: redroot pigweed, herbicidal effect grade: 3 (Herbicidal rate of 40% or more and less than 70%)
Persian speedwell
  R: persian speedwell, herbicidal effect grade: 4 (Herbicidal rate of 70% or more and less than 90%)
Southern crabgrass [5]
  F: southern crabgrass, herbicidal effect grade: 3 (Herbicidal rate of 40% or more and less than 70%)
Green foxtail
  G: green foxtail, herbicidal effect grade: 4 (Herbicidal rate of 70% or more and less than 90%)
Barnyard grass
  H: barnyard grass, herbicidal effect grade: 3 (Herbicidal rate of 40% or more and less than 70%)
Wild oat
  I: wild oat, herbicidal effect grade: 3 (Herbicidal rate of 40% or more and less than 70%)
Windgrass [6]
  L: windgrass, herbicidal effect grade: 5 (Herbicidal rate of 90% or more (almost completely withered))
lambsquarters
  O: lambsquarters, herbicidal effect grade: 4 (Herbicidal rate of 70% or more and less than 90%)

## CCOc1ccccc1-c1sc2cc(Cl)ccc2c1-c1c(O)c(C)nn(C)c1=O [3-039]
Late watergrass
  Herbicidal effect, A: late watergrass: 2 (Herbicidal rate of 20% or more and less than 40%)
Japanese bulrush
  Herbicidal effect, B: Japanese bulrush: 1 (Herbicidal rate of 5% or more and less than 20%)
oval-leafed pondweed [1]
  Herbicidal effect, C: oval-leafed pondweed: 0 (Herbicidal rate of 5% or less (almost no effect))
oval-leafed pondweed [2]
  herbicidal effect rating, C: oval-leafed pondweed: 0 (Herbicidal rate of 5% or less (almost no effect))
Chinese sprangletop
  herbicidal effect on Chinese sprangletop (D): 3 (Herbicidal rate of 40% or more and less than 70%)
Rice flat sedge
  herbicidal effect on rice flat sedge (E): 5 (Herbicidal rate of 90% or more (almost completely withered))
Southern crabgrass [3]
  F: southern crabgrass, herbicidal effect grade: 5 (Herbicidal rate of 90% or more (almost completely withered))
Windgrass [4]
  L: windgrass, herbicidal effect grade: 0 (Herbicidal rate of 5% or less (almost no effect))
Redroot pigweed
  N: redroot pigweed, herbicidal effect grade: 4 (Herbicidal rate of 70% or more and less than 90%)
Persian speedwell
  R: persian speedwell, herbicidal effect grade: 5 (Herbicidal rate of 90% or more (almost completely withered))
Southern crabgrass [5]
  F: southern crabgrass, herbicidal effect grade: 5 (Herbicidal rate of 90% or more (almost completely withered))
Green foxtail
  G: green foxtail, herbicidal effect grade: 5 (Herbicidal rate of 90% or more (almost completely withered))
Barnyard grass
  H: barnyard grass, herbicidal effect grade: 5 (Herbicidal rate of 90% or more (almost completely withered))
Wild oat
  I: wild oat, herbicidal effect grade: 1 (Herbicidal rate of 5% or more and less than 20%)
Windgrass [6]
  L: windgrass, herbicidal effect grade: 4 (Herbicidal rate of 70% or more and less than 90%)
lambsquarters
  O: lambsquarters, herbicidal effect grade: 3 (Herbicidal rate of 40% or more and less than 70%)
